Data as given in patent US11098044B2, “Imidazopyridinyl compounds and use thereof for treatment of neurodegenerative disorders” (1ST Biotherapeutics, Inc., priority 2019, dated 2021).
pIC50: −log10 of the molar value.

How the values were obtained:
Format in all cases: biochemical
LRRK2 G2019S = LRRK2 G2019S (Homo sapiens (Human), UniProt Q5S007, G2019S); assay: LRRK2 G2019S Kinase Assay (Adapta); conditions: 100 μM ATP, LRRKtide substrate; read-out: LRRK2_G2019S IC50
Method: (§1) The LRRK2 and LRRK2 G2019S kinase assays were performed using the Adapta™ technology in ThermoFisher Scientific. This experiment was carried out according to the supplier's protocol. Briefly, assay conditions were as follows. The mixture of substrate (LRRKtide) and each kinase was prepared in 50 mM Tris pH 8.5, 0.01% BRIJ-35, 10 mM MgCl2, 1 mM EGTA, 0.02% NaN3. Assays were performed in the presence of 70 μM ATP and 100 μM ATP (KmATP) in LRRK2 and LRRK2 G2019S, respectively. The reaction was progressed at room temperature for 1 hour. Upon completion of kinase reaction, 5 μL of Detection Mix was added and after 60 min incubation time, the emission ratio of 665/615 nm was calculated.

LRRK2 (WT) = LRRK2 (WT) (Homo sapiens (Human), UniProt Q5S007); assay: LRRK2 Kinase Assay (Adapta); conditions: 70 μM ATP, LRRKtide substrate
Method: as §1

[1] = biological target: c-Abl (His-tagged recombinant human ABL1) (Homo sapiens (Human), UniProt P00519); assay: c-abl Kinase Assay (ADP-Glo); conditions: ATP (25 μM), Abltide substrate
Method: ADP-Glo assay kit was purchased from Promega. Magnesium chloride (MgCl2), bovine serum albumin (BSA), ethylene glycol-bis(p-aminoethyl ether)-N,N,N′,N′-tetraacetic acid (EGTA), triton X-100, 1,4-dithiothreitol (DTT) and dimethyl sulfoxide (DMSO) were purchased from Sigma-Aldrich. HEPES buffer was purchased from Gibco. ABL1 kinase and Abltide were purchased from Signalchem.
c-Abl kinase activity was measured by Promega's ADP-Glo™ Assay. In this assay, His-tagged recombinant human ABL1 (0.25 ng/μl) is incubated with 5 μL of compounds (0.5% DMSO), 5 μL of Abltide (0.01 μg/μl) and 5 μL of ATP (25 μM) in buffer (50 mM HEPES, 7.5; 10 mM MgCl2; 1 mM EGTA; 0.05% BSA; 0.01% Triton X-100; 2 mM DTT). The assay was started by incubating the reaction mixture in a 96-well plate at 30° C. for 30-min. After the incubation, 25 μL ADP-Glo reagent was added and the reaction was incubated at room temperature for 40-min to stop the reaction and degrade residual ATP. The ADP product was then converted to ATP by adding 50 μL per well of detection reagent. Luminescence was detected after 30-min room temperature incubation with the Molecular device I3X plate reader. The IC50 values were calculated from a series of percent inhibition values determined at a range of inhibitor concentration using software routines as implemented in the GraphPad Prism 7 software and Sigma Plot 13.0.

c-Abl (His-tagged recombinant human ABL1), sequence (P00519 whole entry): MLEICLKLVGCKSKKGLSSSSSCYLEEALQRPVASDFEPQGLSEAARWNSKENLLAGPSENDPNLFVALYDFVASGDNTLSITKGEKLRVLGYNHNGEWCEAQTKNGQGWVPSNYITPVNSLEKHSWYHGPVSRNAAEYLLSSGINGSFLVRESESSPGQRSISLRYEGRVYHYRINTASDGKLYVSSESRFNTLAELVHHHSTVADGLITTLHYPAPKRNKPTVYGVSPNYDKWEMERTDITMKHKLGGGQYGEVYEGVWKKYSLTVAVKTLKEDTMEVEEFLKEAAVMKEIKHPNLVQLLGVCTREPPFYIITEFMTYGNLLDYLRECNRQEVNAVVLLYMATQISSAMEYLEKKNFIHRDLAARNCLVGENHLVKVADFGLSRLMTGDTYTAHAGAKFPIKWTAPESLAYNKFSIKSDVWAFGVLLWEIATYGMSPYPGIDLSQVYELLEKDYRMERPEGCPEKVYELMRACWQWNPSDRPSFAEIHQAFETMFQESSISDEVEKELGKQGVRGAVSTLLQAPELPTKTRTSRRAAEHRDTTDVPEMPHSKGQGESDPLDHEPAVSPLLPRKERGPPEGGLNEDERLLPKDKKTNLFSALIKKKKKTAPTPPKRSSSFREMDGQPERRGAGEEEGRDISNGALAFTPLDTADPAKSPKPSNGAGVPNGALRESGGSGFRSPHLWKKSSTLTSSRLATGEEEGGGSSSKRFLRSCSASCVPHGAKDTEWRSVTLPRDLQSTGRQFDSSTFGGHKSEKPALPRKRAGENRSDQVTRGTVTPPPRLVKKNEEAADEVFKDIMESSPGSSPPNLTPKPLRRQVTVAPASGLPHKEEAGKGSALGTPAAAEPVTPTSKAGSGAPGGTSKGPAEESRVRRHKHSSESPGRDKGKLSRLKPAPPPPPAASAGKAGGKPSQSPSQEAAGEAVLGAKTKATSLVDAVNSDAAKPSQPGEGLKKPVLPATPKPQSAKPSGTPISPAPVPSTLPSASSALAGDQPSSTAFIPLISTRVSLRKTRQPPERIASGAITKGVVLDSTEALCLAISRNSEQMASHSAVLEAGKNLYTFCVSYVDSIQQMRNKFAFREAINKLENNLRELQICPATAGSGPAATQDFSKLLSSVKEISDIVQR
LRRK2 G2019S, sequence (Q5S007 whole entry G2019S): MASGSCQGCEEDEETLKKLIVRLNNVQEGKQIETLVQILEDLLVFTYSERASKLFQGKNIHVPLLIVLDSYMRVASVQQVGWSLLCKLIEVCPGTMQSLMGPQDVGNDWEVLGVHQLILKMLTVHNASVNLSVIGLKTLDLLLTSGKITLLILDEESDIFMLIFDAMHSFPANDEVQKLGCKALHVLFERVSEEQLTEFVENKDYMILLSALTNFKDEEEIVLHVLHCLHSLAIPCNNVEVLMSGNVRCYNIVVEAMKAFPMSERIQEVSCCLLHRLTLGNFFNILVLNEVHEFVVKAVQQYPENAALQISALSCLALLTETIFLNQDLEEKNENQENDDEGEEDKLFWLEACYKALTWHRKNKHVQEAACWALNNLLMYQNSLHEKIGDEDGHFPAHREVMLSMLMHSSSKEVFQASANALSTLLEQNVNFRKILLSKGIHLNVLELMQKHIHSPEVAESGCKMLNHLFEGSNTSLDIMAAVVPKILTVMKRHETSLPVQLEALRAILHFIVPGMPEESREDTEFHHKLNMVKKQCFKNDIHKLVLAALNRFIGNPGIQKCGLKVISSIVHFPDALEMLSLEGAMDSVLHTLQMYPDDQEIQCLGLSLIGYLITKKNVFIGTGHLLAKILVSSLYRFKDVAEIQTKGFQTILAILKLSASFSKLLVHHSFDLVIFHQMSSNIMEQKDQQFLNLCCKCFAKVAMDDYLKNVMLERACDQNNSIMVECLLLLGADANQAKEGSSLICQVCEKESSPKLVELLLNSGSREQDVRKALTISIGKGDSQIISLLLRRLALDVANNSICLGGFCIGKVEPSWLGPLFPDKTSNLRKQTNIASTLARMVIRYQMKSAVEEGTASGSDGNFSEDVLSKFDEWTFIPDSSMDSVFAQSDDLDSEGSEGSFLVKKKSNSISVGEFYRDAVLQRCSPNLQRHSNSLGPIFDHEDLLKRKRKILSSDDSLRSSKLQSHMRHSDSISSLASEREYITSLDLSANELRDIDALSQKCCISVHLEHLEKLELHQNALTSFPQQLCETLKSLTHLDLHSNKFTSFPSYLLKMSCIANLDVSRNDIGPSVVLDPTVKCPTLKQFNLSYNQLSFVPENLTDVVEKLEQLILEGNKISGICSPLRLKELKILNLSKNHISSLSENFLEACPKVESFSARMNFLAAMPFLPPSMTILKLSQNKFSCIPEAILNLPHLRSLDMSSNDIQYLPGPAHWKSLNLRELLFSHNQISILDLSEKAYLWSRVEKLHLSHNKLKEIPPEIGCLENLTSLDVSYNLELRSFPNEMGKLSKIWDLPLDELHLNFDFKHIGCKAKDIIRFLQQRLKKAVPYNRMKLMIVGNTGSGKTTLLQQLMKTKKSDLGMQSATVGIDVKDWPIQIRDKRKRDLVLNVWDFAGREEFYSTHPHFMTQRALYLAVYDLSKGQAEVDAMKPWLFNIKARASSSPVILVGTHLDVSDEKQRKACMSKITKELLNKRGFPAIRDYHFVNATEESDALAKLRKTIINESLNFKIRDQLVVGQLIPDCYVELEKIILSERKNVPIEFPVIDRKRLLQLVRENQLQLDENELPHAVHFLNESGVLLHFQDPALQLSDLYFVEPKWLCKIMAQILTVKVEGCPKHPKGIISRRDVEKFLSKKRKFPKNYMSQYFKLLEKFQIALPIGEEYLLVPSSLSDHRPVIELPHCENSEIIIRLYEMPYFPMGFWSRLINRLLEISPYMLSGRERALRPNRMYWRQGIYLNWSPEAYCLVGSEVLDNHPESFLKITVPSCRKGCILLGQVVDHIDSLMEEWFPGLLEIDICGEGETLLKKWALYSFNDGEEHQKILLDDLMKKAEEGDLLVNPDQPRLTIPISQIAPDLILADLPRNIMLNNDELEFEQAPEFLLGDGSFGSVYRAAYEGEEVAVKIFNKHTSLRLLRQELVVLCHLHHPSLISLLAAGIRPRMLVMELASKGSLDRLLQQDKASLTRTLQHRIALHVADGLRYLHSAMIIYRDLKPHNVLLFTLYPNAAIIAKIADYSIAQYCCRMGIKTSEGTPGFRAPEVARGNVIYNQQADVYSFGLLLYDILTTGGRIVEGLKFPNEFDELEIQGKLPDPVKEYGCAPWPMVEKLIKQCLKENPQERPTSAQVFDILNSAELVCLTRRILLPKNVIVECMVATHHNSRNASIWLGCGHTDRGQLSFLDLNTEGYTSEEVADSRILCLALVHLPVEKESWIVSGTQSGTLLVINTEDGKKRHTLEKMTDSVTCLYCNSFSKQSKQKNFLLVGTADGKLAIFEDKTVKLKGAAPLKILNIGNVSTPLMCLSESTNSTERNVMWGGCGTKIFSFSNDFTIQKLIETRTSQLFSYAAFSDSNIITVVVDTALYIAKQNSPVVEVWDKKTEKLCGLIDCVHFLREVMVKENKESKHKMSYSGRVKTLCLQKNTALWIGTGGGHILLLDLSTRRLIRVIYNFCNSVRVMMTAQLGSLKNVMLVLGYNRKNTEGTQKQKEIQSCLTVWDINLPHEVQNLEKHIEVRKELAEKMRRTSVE
LRRK2 (WT), sequence (Q5S007 whole entry): as the sequence (Q5S007 whole entry G2019S) above, with S2019G counted along it

Row | SMILES | pIC50 (LRRK2 G2019S) | pIC50 (LRRK2 (WT)) | pIC50 [1]
1 | O=C(Nc1cn2cc(-c3cnccc3C(F)(F)F)ccc2n1)[C@@H]1C[C@@H]1F [Example 31, (1S,2S)-2-fluoro-N-(6-(4-(trifluoromethyl)pyridin-3-yl)imidazo[1,2-a]pyridin-2-yl)cyclopropane-1-carboxamide] | 6.00 to 7.00 | < 6.00 | 6.00 to 7.00
2 | Cc1c(F)cccc1-c1ccc2nc(NC(=O)[C@@H]3C[C@@H]3F)c(F)n2c1 [Example 33, (1S,2S)-2-fluoro-N-(3-fluoro-6-(3-fluoro-2-methylphenyl)imidazo[1,2-a]pyridin-2-yl)cyclopropane-1-carboxamide] | 6.00 to 7.00 | 6.00 to 7.00 | > 8.00
3 | O=C1Cc2ccc(-c3ccc4nc(NC(=O)[C@@H]5C[C@@H]5F)cn4c3)cc2N1 [Example 35, (1S,2S)-2-fluoro-N-(6-(2-oxoindolin-6-yl)imidazo[1,2-a]pyridin-2-yl)cyclopropane-1-carboxamide] | < 6.00 | < 6.00 | 7.00 to 8.00
4 | N#Cc1ccncc1-c1ccc2nc(NC(=O)[C@@H]3C[C@@H]3F)cn2c1 [Example 36, (1S,2S)—N-(6-(4-cyanopyridin-3-yl)imidazo[1,2-a]pyridin-2-yl)-2-fluorocyclopropane-1-carboxamide] | 6.00 to 7.00 | < 6.00 | 6.00 to 7.00
5 | Cc1cc(F)cc(C)c1-c1ccc2nc(NC(=O)[C@@H]3C[C@@H]3F)cn2c1 [Example 38, (1S,2S)-2-fluoro-N-(6-(4-fluoro-2,6-dimethylphenyl)imidazo[1,2-a]pyridin-2-yl)cyclopropane-1-carboxamide] | 6.00 to 7.00 | 6.00 to 7.00 | > 8.00
6 | Cc1ccsc1-c1ccc2nc(NC(=O)[C@@H]3C[C@@H]3F)cn2c1 [Example 41, (1S,2S)-2-fluoro-N-(6-(3-methylthiophen-2-yl)imidazo[1,2-a]pyridin-2-yl)cyclopropane-1-carboxamide] | 7.00 to 8.00 | 7.00 to 8.00 | > 8.00
7 | Cc1c(-c2ccc3nc(NC(=O)[C@@H]4C[C@@H]4F)cn3c2)ccc(F)c1F [Example 44, (1S,2S)—N-(6-(3,4-difluoro-2-methylphenyl)imidazo[1,2-a]pyridin-2-yl)-2-fluorocyclopropane-1-carboxamide] | 7.00 to 8.00 | 6.00 to 7.00 | > 8.00
8 | Cc1c(F)ccc(F)c1-c1ccc2nc(NC(=O)[C@@H]3C[C@@H]3F)cn2c1 [Example 45, (1S,2S)—N-(6-(3,6-difluoro-2-methylphenyl)imidazo[1,2-a]pyridin-2-yl)-2-fluorocyclopropane-1-carboxamide] | 7.00 to 8.00 | 6.00 to 7.00 | > 8.00
9 | Cc1ccnc(F)c1-c1ccc2nc(NC(=O)[C@@H]3C[C@@H]3F)cn2c1 [Example 47, (1S,2S)-2-fluoro-N-(6-(2-fluoro-4-methylpyridin-3-yl)imidazo[1,2-a]pyridin-2-yl)cyclopropane-1-carboxamide] | 7.00 to 8.00 | 6.00 to 7.00 | 7.00 to 8.00
10 | Cc1c(F)cc(N)cc1-c1ccc2nc(NC(=O)[C@@H]3C[C@@H]3F)cn2c1 [Example 50, (1S,2S)—N-(6-(5-amino-3-fluoro-2-methylphenyl)imidazo[1,2-a]pyridin-2-yl)-2-fluorocyclopropane-1-carboxamide] | 7.00 to 8.00 | 7.00 to 8.00 | > 8.00
11 | Cc1ccc2c(c1-c1ccc3nc(NC(=O)[C@@H]4C[C@@H]4F)cn3c1)CC(=O)N2 [Example 51, (1S,2S)-2-fluoro-N-(6-(5-methyl-2-oxoindolin-4-yl)imidazo[1,2-a]pyridin-2-yl)cyclopropane-1-carboxamide] | < 6.00 | < 6.00 | > 8.00

Continued, values first:

Row | pIC50 (LRRK2 G2019S) | pIC50 (LRRK2 (WT)) | pIC50 [1] | SMILES
12 | 6.00 to 7.00 | 6.00 to 7.00 | > 8.00 | Cc1cc(Cl)ccc1-c1ccc2nc(NC(=O)[C@@H]3C[C@@H]3F)cn2c1 [Example 29, (1S,2S)—N-(6-(4-chloro-2-methylphenyl)imidazo[1,2-a]pyridin-2-yl)-2-fluorocyclopropane-1-carboxamide]
13 | 6.00 to 7.00 | 6.00 to 7.00 | > 8.00 | Cc1c(Cl)cccc1-c1ccc2nc(NC(=O)[C@@H]3C[C@@H]3F)cn2c1 [Example 30, (1S,2S)—N-(6-(3-chloro-2-methylphenyl)imidazo[1,2-a]pyridin-2-yl)-2-fluorocyclopropane-1-carboxamide]
14 | 6.00 to 7.00 | 6.00 to 7.00 | > 8.00 | Cc1ccc(-c2ccc3nc(NC(=O)[C@@H]4C[C@@H]4F)cn3c2)c(C)c1 [Example 32, (1S,2S)—N-(6-(2,4-dimethylphenyl)imidazo[1,2-a]pyridin-2-yl)-2-fluorocyclopropane-1-carboxamide]
15 | 6.00 to 7.00 | 6.00 to 7.00 | > 8.00 | Cc1ccc(C)c(-c2ccc3nc(NC(=O)[C@@H]4C[C@@H]4F)cn3c2)c1 [Example 34, (1S,2S)—N-(6-(2,5-dimethylphenyl)imidazo[1,2-a]pyridin-2-yl)-2-fluorocyclopropane-1-carboxamide]
16 | 6.00 to 7.00 | 6.00 to 7.00 | > 8.00 | Cc1c(F)ccc(-c2ccc3nc(NC(=O)[C@@H]4C[C@@H]4F)cn3c2)c1C [Example 37, (1S,2S)-2-fluoro-N-(6-(4-fluoro-2,3-dimethylphenyl)imidazo[1,2-a]pyridin-2-yl)cyclopropane-1-carboxamide]
17 | 7.00 to 8.00 | 6.00 to 7.00 | > 8.00 | Cc1cc(F)ccc1-c1ccc2nc(NC(=O)[C@@H]3C[C@@H]3F)cn2c1 [Example 39, (1S,2S)-2-fluoro-N-(6-(4-fluoro-2-methylphenyl)imidazo[1,2-a]pyridin-2-yl)cyclopropane-1-carboxamide]
18 | 7.00 to 8.00 | 6.00 to 7.00 | > 8.00 | Cc1ccc(-c2cc[nH]c2)cc1-c1ccc2nc(NC(=O)[C@@H]3C[C@@H]3F)cn2c1 [Example 40, (1S,2S)-2-fluoro-N-(6-(2-methyl-5-(1H-pyrrol-3-yl)phenyl)imidazo[1,2-a]pyridin-2-yl)cyclopropane-1-carboxamide]
19 | 7.00 to 8.00 | 6.00 to 7.00 | > 8.00 | Cc1cc(F)c(O)cc1-c1ccc2nc(NC(=O)[C@@H]3C[C@@H]3F)cn2c1 [Example 43, (1S,2S)-2-fluoro-N-(6-(4-fluoro-5-hydroxy-2-methylphenyl)imidazo[1,2-a]pyridin-2-yl)cyclopropane-1-carboxamide]
20 | 6.00 to 7.00 | 6.00 to 7.00 | > 8.00 | Cc1c(-c2ccc3nc(NC(=O)[C@@H]4C[C@@H]4F)cn3c2)ccc(Cl)c1F [Example 46, (1S,2S)—N-(6-(4-chloro-3-fluoro-2-methylphenyl)imidazo[1,2-a]pyridin-2-yl)-2-fluorocyclopropane-1-carboxamide]
21 | < 6.00 | < 6.00 | > 8.00 | Cc1cc(N)ncc1-c1ccc2nc(NC(=O)[C@@H]3C[C@@H]3F)cn2c1 [Example 49, (1S,2S)—N-(6-(6-amino-4-methylpyridin-3-yl)imidazo[1,2-a]pyridin-2-yl)-2-fluorocyclopropane-1-carboxamide]
22 | 7.00 to 8.00 | 6.00 to 7.00 | > 8.00 | Cc1cccc(Cl)c1-c1ccc2nc(NC(=O)[C@@H]3C[C@@H]3F)cn2c1 [Example 52, (1S,2S)—N-(6-(2-chloro-6-methylphenyl)imidazo[1,2-a]pyridin-2-yl)-2-fluorocyclopropane-1-carboxamide]
